From patent publication US20090177280A1, “Implant With Multiple Coating” (priority 2005, published 2009)
“Also recorded” adds a separate entry of the source.

Assay: Release of rapamycin from spray-coated microporous stents (UV spectroscopy at 280 nm)
Type: physicochemical
Details: for effect of second drug on rapamycin release from the stent platform: 0.5% and 1.0% 17β estradiol valerate added to 1% rapamycin solution in ethanol
Description: Microporous stents are spray-coated by means of a unique stent-coating machine (Wessely et al, supra). Attachment of a drug-reservoir is required to supply one or multiple drugs of choice. Besides sirolimus (rapamycin) we included a second drug at different concentrations to examine whether release kinetics of the primary compound (e.g. sirolimus) could be altered. Released rapamycin from the stent platform were measured at distinctive time points as previously described (Wessely, supra) by means of UV spectroscopy at a wave length of 280 nm.
The experiment was carried out as Example 1 with the exception that 17β estradiol was used as second drug.
The experiment was carried out as Example 1 with the exception that rosiglitazone was used as second drug.
The experiment was carried out as Example 1 with the exception that probucol was used as second drug.

## CCCCC(=O)O[C@H]1CC[C@H]2[C@@H]3CCc4cc(O)ccc4[C@H]3CC[C@]12C [17β estradiol valerate]
0.1%
  effect of second drug on rapamycin release from the stent platform: substantially modulate rapamycin release
0.1%, listed as estradiolvalerat
  effect of second drug on rapamycin release from the stent platform: retardation

## COc1ccccc1OCCNCC(O)COc1cccc2[nH]c3ccccc3c12 (stereo not shown) [carvedilol]
Multiplex coating with rapamycin (1%) and carvedilol (0.5%) in ethanol vs single coated rapamycin (1%)
  effect of second drug on stent-based rapamycin release: clear retardation

## CC(C)(Sc1cc(C(C)(C)C)c(O)c(C(C)(C)C)c1)Sc1cc(C(C)(C)C)c(O)c(C(C)(C)C)c1 [probucol, 4,4′-(isopropylidenedithio) bis(2,6-di-tert-butyl-phenol)]
0.1%, 0.5% and 1.0% probucol added to 4% rapamycin solution in ethanol, polymer-free
  effect of second drug on release of rapamycin from the stent: protracts the release of rapamycin; also recorded: modifiable
